Read-outs that look alike come from different tables or passages of the source.
What was measured:
Type in all cases: physicochemical
[1] = Loss Factor (vapour pressure x water solubility at room temperature)
Text: Preferred components of a fragrance material for addition to the outer matrix are substances that have a Loss Factor (FL) that is lower than 10^2 Pa ppm. The term <<Loss Factor>> refers to a parameter that is related to the losses of fragrance material during drying and is defined as the product of the pure component vapour pressure (Pa) and the water solubility (ppm) at room temperature. Vapour pressures and water solubility data for commercially available fragrance components are well known and so the Loss Factor for a given fragrance component may be easily calculated. Alternatively, vapour pressure and water solubility measurements may be easily taken using techniques well known in the art. […] The water solubility of fragrances may be measured according to techniques known in the art for the measurement of sparingly water-soluble materials. A preferred technique involves the formation of a saturated solution of a fragrance component in water. A tube with a dialysed membrane is placed in the solution such that after equilibration an idealised solution is formed within the tube. The tube may be removed and the water solution therein extracted with a suitable organic solvent to remove the fragrance component. Finally the extracted fragrance component may be concentrated and measured, for example using gas chromatography.

[2] = Retention of fragrance material components after granulation by GC/MS; details: for Divided. Initial Retention: fragrance divided between core particles and outer matrix (Example 2.2); for Undivided. Initial Retention: whole fragrance in outer matrix (Example 2.1)
Text: In this example, fragrance material components are divided between core particles and outer matrix. The selection is made such that fragrance components having a loss factor of FL>10^2 Pa ppm are present in core particles whereas the components having a loss factor of FL<10^2 Pa ppm are present in the outer matrix. Such a composition is then compared with a composition wherein total fragrance material is provided in an outer matrix, the core particles being fragrance material-free. […] The retention of certain fragrance material components after the granulation process was measured by GC/MS analysis.

[3] = Aged retention of fragrance components in powder detergent, GC/MS; details: 1 month, 37° C., 70% relative humidity; for Retention With coating: composition as Example 1 with coating in detergent base; for Retention Without coating: composition as Example 1 without coating in detergent base; for Retention free perfume: free perfume in detergent base, 0.35 wt %
Description: Compositions were prepared substantially as set out in Example 1 wherein one composition was provided with a coating and the other not.
Compositions were incorporated into standard, unperfumed detergent bases resulting in 130.00 g perfumed powder detergent with a perfume level of 0.35 wt % based on total powder detergent. As a reference, 0.46 g of free perfume was incorporated into 129.54 g of the same standard detergent base. Both samples and reference were filled separately into carton boxes, sealed and stored in a climate chamber at 70% relative humidity and 37° C. for 1 month. All samples were compared in terms of aged fragrance material profile measured by GC/MS analysis.

[4] = vapour pressure (Pa) x water solubility (ppm), room temperature

SMILES | Loss Factor FL [1] [Pa ppm] | Divided. Initial Retention [2] [%] | Undivided. Initial Retention [2] [%] | Retention With coating [3] [%] | Retention Without coating [3] [%] | Retention free perfume [3] [%] | Loss Factor FL [1, 4] [Pa ppm]
CCCCCCCCCC=O [Aldehyde C10] | 424 | 93 | 44 | – | – | – | –
CC(=O)OCc1ccccc1 [Benzyl acetate] | – | – | – | 50 | 26 | 0 | –
O=C(OCc1ccccc1)c1ccccc1 [Benzyl benzoate] | – | 88 | 99 | – | – | – | –
CC(=O)/C=C/C1=C(C)CCCC1(C)C [Beta ionone] | – | 100 | 75 | – | – | – | 90
CC(C)=CCCC(C)CCO (centres unmarked) [Citronellol] | – | 100 | 53 | 71 | 18 | 26 | 761
O=C(OC1CCCCC1)c1ccccc1O [Cyclohexyl salicylate] | – | 94 | 91 | – | – | – | 1.37
CC(=O)CCC1=C(C)CCCC1(C)C [Dihydro beta ionone] | 84 | 84 | 56 | – | – | – | –
CC(=O)/C(C)=C/C1C(C)=CCCC1(C)C (centres unmarked) [Gamma methyl ionone] | – | – | – | 91 | 51 | 49 | –
CCCCCCOC(=O)c1ccccc1O [Hexyl salicylate] | – | – | – | 94 | 47 | 18 | –
CC(C=O)Cc1ccc(C(C)(C)C)cc1 (centres unmarked) [Lilial] | – | – | – | 65 | 36 | 4 | –
C=C(C)[C@H]1CC=C(C)CC1 [Limonene] | – | – | – | 41 | 18 | 0 | –
C=CC(C)(CCC=C(C)C)OC(C)=O (centres unmarked) [Linalyl acetate] | – | – | – | 80 | 39 | 8 | –
OCCc1ccccc1 [Phenyl ethyl alcohol] | – | – | – | 72 | 36 | 25 | –
CCC(C)(O)CCCC(C)C (centres unmarked) [Tetrahydro linalool] | – | 97 | 47 | 84 | 50 | 33 | 3466

From patent publication US7166567B2, “Fragrance compositions” (Givaudan SA, priority 2000, dated 2007)
